According to patent publication US11447522B2, “Potent soft anti-inflammatory corticosteroid compounds and uses thereof” (Bodor Laboratories, Inc., priority 2017, dated 2022):
Where two headings read alike, the source gives them in different places.

Assays:
[1] = test system: TNF α-production of LPS-stimulated blood cells; assay: TNF-α production of lipopolysaccharide-stimulated human blood; type: cell-based
Method: (§1) The in vitro anti-inflammatory effect of ED and its analogs was assessed using LPS-induced TNF α-release under various conditions (diluted or undiluted whole human blood, preincubation with sera) to determine the intrinsic anti-inflammatory activity and systemic biological stability of the various compounds.
(§2) Commercially available human cytokine ELISA sets were used. TNF-α and GM-CSF sets were purchased from BD Pharmingen, San Diego, Calif., USA) and the IL-1β set was obtained from R&D Systems (Minneapolis, Minn., USA). ELISA was performed according to the manufacturer's protocol. Cell-free supernatants were tested in duplicate. Detection limits were 7.8 pg/ml for TNF-α, 4.7 pg/ml for GM-CSF, and 3.9 pg/ml for IL-1β. Results were expressed as the mean percentage of inhibition. IC50 values for test compounds were calculated by linear regression.
Peripheral blood from healthy donors was collected aseptically into sterile heparinized (Vacutainer™) tubes. Whole blood samples from each individual were parallel used both undiluted and after 5-fold dilution with RPMI-1640 medium in every experiment. Blood samples were distributed into 24-well plates and incubated with serial concentrations of the test compounds and 1 μg/ml lipopolysaccharide for 24 h at 37° C. in a CO2 thermostat. Controls were treated with lipopolysaccharide and the vehicle (PBS or 0.01% dimethyl sulfoxide in PBS). After incubation, cell-free supernatants were separated by centrifugation (1000 g for 10 minutes) and stored at −20° C. until determination of the amount of TNF-α. Test compounds were examined in blood samples from five different individuals. Two parallel cultures per treatments were run.

[2] = test system: mitogen-induced proliferation of PBMC; assay: Proliferation of lectin-stimulated peripheral mononuclear cells; type: cell-based, human; details: read-out: Prolif.**: Inhibition of mitogen-induced proliferation of PBMC
Method: Mononuclear cells from heparinized peripheral blood of healthy donors were isolated on suitable gradient (Optiprep solution, 1.077 g/ml). Serial dilutions of the test compounds (ranging from 2×10^−6 to 2×10^−8 M) were made in 100 μl of medium per well of sterile round-bottomed 96-well microtiter plate. Control wells contained culture medium only. 100 μl of cell suspension (10^6 cells/ml), containing concanavalin A (2 μg/ml) was added to each well. […] All cultures were done in triplicate. Microtiter plates were incubated for 72 h at 37° C., in 5% CO2 containing humidified atmosphere. For the last 18 h of incubation, [^3H]thymidine was added to the cells cultures, at 0.1 μCi/well final concentration. At the end of the incubation, cells were harvested to glass microfiber filter (Whatman G/F) and associated radioactivity was determined by liquid scintillation.

[3] = test system: TNF-α production of LPS-stimulated whole blood cells; assay: Stability: inhibition of TNF-α production with or without preincubation of the compounds in human plasma/serum; type: cell-based; details: for potency and softness compared with the corresponding compounds 11 and 15: see Table 1
Method: as §1, §2
Mononuclear cells from peripheral blood of healthy donors were isolated on Ficoll-gradient. One million cells in 0.9 ml of RPMI 1640 medium were distributed into 24-well plates and serial concentrations of the test compounds, made in fresh human serum either instantly or 18 h previously, were added (0.05 ml) together with the lipopolysaccharide (0.05 ml; 1 μg/ml final concentration). Preincubation of the compounds with serum was carried out at 37° C. Processing of the cultures was done as described above.

[4] = Stability in the presence of human plasma (HPLC/MS/MS); type: in vitro ADME; details: 37° C.
Method: Etiprednol dicloacetate (BNP-166) was added to freshly prepared human plasma of healthy donors at a concentration of 5 ng/ml, and were incubated at 37° C. for different intervals. After incubation the amount of the original compound (ethyl-17α-dichloroacetoxy-11β-hydroxyandostra-1,4-diene-3-one-17β-carboxylate), and one of its main metabolite, M-OH (17α,11β-dihydroxyandostra-1,4-diene-3-one-17β-carboxylate) were determined using an HPLC/MS/MS method. In brief: Fluocinolone acetonide served as internal standard (20 ng/ml), samples were extracted with a liquid-liquid extraction on Extrelut® columns, and were separated on a Purospher STAR 30×2 mm (3 μm) reversed phase column at a flow rate of 0.3 ml/min, using a linear gradient with a mobile phase system containing acetonitrile, water and acetic acid. Determination were performed on a triple quadrupole mass spectrometer (Perkin-Elmer SCIEX API 2000) supplied with an electrospray interface operated in the positive ionization mode. The multiple ion monitoring, parent→daughter ion transitions of 485.2→265.2, 375.2→265.2 and 495.2→337.2 were used for the quantification of etiprednol dicloacetate, its M-OH metabolite and for the internal standard respectively. Results are expressed as peak areas normalized to the internal control. Stability of the selected ED analogs (10, 11, 13, 17, 21, 25) were determined as described above for ED (3).

[5] = test system: ovalbumin sensitized and challenged Brown Norway rats; assay: Airway changes of ovalbumin sensitized and challenged Brown Norway rats, intratracheal administration; type: in vivo; details: for AHR (airways hyperreactivity) ED50: relative response to maximal acetylcholine dose
[6] = diluted blood 1:5, read-out: TNFα* a: Inhibition of TNF α-production of LPS-stimulated blood cells
[7] = undiluted blood, read-out: TNFα* b: Inhibition of TNF α-production of LPS-stimulated blood cells
[8] = non-preincubated in human plasma, read-out: Stability*** c: Inhibition of TNF-α production of LPS-stimulated whole blood cells
[9] = preincubated overnight in human plasma, read-out: Stability*** d: Inhibition of TNF-α production of LPS-stimulated whole blood cells
[10] = intratracheal, 2 hours prior challenge
[11] = intratracheal, 2 hours prior challenge, minimal statistically significantly effective dose

SMILES | IC50 [1, 6] | IC50 [1, 7] | IC50 [2] | IC50 [3, 8] | IC50 [3, 9] | other results
C[C@@H]1C[C@H]2[C@@H]3C[C@H](F)C4=CC(=O)C=C[C@]4(C)[C@@]3(F)[C@@H](O)C[C@]2(C)[C@@]1(OC(=O)C(Cl)Cl)C(=O)OCCl [Compound 22, Chloromethyl 17α-dichloroacetoxy-6α,9α-difluoro-11β-hydroxy-16α-methyl-3-oxoandrosta-1,4-diene-17β-carboxylate] | 4 nM | 4 nM | 0.02 nM | – | – | –
C[C@H]1C[C@H]2[C@@H]3C[C@H](F)C4=CC(=O)C=C[C@]4(C)[C@@]3(F)[C@@H](O)C[C@]2(C)[C@@]1(OC(=O)C(Cl)Cl)C(=O)OCCl [Compound 16, Chloromethyl 6α,9α-difluoro-17α-dichloroacetoxy-16β-methyl-11β-hydroxy-3-oxoandrosta-1,4-diene-17β-carboxylate] | 0.4 nM | 5.1 ± 1.7 nM | 26 ± 26 nM | – | – | –
COC(=O)[C@@]1(OC(=O)C(Cl)Cl)[C@@H](C)C[C@H]2[C@@H]3CCC4=CC(=O)C=C[C@]4(C)[C@@]3(F)[C@@H](O)C[C@@]21C [Compound 10, Methyl 17α-dichloroacetoxy-9α-fluoro-16β-methyl-11β-hydroxy-3-oxoandrosta-1,4-diene-17β-carboxylate] | 4 ± 3 nM | 20 ± 10 nM | < 0.01 nM | 1.7 nM | 10.2 nM | –
CC1CC2C3CC(F)C4=CC(=O)C=CC4(C)C3(F)C(O)CC2(C)C1(OC(=O)C(Cl)Cl)C(=O)SCCl (stereo not drawn) [Compound 26, S-Chloromethyl 17α-dichloroacetoxy-6α,9α-difluoro-11β-hydroxy-16α-methyl-3-oxoandrosta-1,4-diene-17β-carbothioate] | 6 nM | 12 nM | 3 nM | – | – | –
COC(=O)C1(OC(=O)C(Cl)Cl)C(C)CC2C3CC(F)C4=CC(=O)C=CC4(C)C3(F)C(O)CC21C (stereo not drawn) [Compound 14, Methyl 6α,9α-difluoro-17α-dichloroacetoxy-16β-methyl-11β-hydroxy-3-oxoandrosta-1,4-diene-17β-carboxylate] | 0.8 ± 0.6 nM | 1.7 ± 0.9 nM | < 0.01 nM | – | – | –
C[C@H]1C[C@H]2[C@@H]3CCC4=CC(=O)C=C[C@]4(C)[C@@]3(F)[C@@H](O)C[C@]2(C)[C@@]1(OC(=O)C(Cl)Cl)C(=O)OCCO [Compound 13, 2-Hydroxyethyl 17α-dichloroacetoxy-9α-fluoro-16β-methyl-11β-hydroxy-3-oxoandrosta-1,4-diene-17β-carboxylate] | 4.6 ± 6 nM | 5.8 ± 5 nM | – | 4.5 nM | 53.5 nM | potency and softness compared with the corresponding compounds 11 and 15 [3]: more potent but softer; stability in the presence of human plasma [4]: particularly stable
C[C@H]1C[C@H]2[C@@H]3CCC4=CC(=O)C=C[C@]4(C)[C@@]3(F)[C@@H](O)C[C@]2(C)[C@@]1(OC(=O)C(Cl)Cl)C(=O)OCCl [Compound 12, Chloromethyl 17α-dichloroacetoxy-9α-fluoro-16β-methyl-11β-hydroxy-3-oxoandrosta-1,4-diene-17β-carboxylate] | 20 ± 8 nM | 35 ± 12 nM | 0.05 ± 0.12 nM | – | – | –
CCOC(=O)[C@@]1(OC(=O)C(Cl)Cl)[C@@H](C)C[C@H]2[C@@H]3CCC4=CC(=O)C=C[C@]4(C)[C@@]3(F)[C@@H](O)C[C@@]21C [Compound 11, Ethyl 17α-dichloroacetoxy-9α-fluoro-16β-methyl-11β-hydroxy-3-oxoandrosta-1,4-diene-17β-carboxylate] | 1.7 ± 2 nM | 7.1 ± 4 nM | 0.012 nM | 16 nM | 18 nM | overall in vivo activity compared with the parent steroid ([5]; Table 2 parameters): does not represent significant improvement over ED, except in mucus production; Edema formation ED50 [5, 10]: 93 µg/kg; Eosinophilia BALF ED50 [5, 10]: >100 µg/kg; Eosinophilia Peribronchial ED50 [5, 10]: 10.3 µg/kg; Mucus production ED50 [5, 10]: <1 µg/kg; Mucus production, second line (dose type not given) [5, 10]: <1 µg/kg; AHR (airways hyperreactivity) MSED [5, 11]: 20.0 µg/kg; Edema formation MSED [5, 11]: 0.5 µg/kg; Eosinophilia Peribronchial MSED [5, 11]: 12.0 µg/kg; AHR (airways hyperreactivity) ED50 [5, 10]: 19.4 µg/kg
C[C@@H]1C[C@H]2[C@@H]3C[C@H](F)C4=CC(=O)C=C[C@]4(C)[C@@]3(F)[C@@H](O)C[C@]2(C)[C@@]1(OC(=O)C(Cl)Cl)C(=O)OCF [Compound 21, Fluoromethyl 17α-dichloroacetoxy-6α,9α-difluoro-11β-hydroxy-16α-methyl-3-oxoandrosta-1,4-diene-17β-carboxylate] | 1.4 nM | 4.5 nM | 9 nM | 1.4 nM | 25 nM | stability in the presence of human plasma [4]: particularly stable
CCC(=O)O[C@]1(C(=O)SCF)[C@H](C)C[C@H]2[C@@H]3C[C@H](F)C4=CC(=O)C=C[C@]4(C)[C@@]3(F)[C@@H](O)C[C@@]21C [FLU, fluticasone propionate] | – | – | – | – | – | Edema formation ED50 [5, 10]: 2.8 µg/kg; Eosinophilia BALF ED50 [5, 10]: >100 µg/kg; Eosinophilia Peribronchial ED50 [5, 10]: 10.5 µg/kg; Eosinophilia Perivascular ED50 [5, 10]: 45.0 µg/kg; Mucus production ED50 [5, 10]: <1.0 µg/kg; Mucus production, second line (dose type not given) [5, 10]: 1.0 µg/kg; BALF protein ED50 ([5]; intratracheal, 2 hours prior challenge, broncho-alveolar lavage fluid): 11.2 µg/kg; AHR (airways hyperreactivity) MSED [5, 11]: 0.1 µg/kg; BALF protein MSED [5, 11]: 10.0 µg/kg; Edema formation MSED [5, 11]: 1.0 µg/kg; Eosinophilia BALF MSED [5, 11]: 10.0 µg/kg; Eosinophilia Peribronchial MSED [5, 11]: 1.0 µg/kg; Eosinophilia Perivascular MSED [5, 11]: 10.0 µg/kg; AHR (airways hyperreactivity) ED50 [5, 10]: 0.14 µg/kg
C[C@H]1C[C@H]2[C@@H]3C[C@H](F)C4=CC(=O)C=C[C@]4(C)[C@@]3(F)[C@@H](O)C[C@]2(C)[C@@]1(OC(=O)C(Cl)Cl)C(=O)OCCO [Compound 17, 2-Hydroxyethyl 6α,9α-difluoro-17α-dichloroacetoxy-16β-methyl-11β-hydroxy-3-oxoandrosta-1,4-diene-17β-carboxylate] | < 1 nM | 3.7 ± 2.6 nM | 0.13 ± 0.02 nM | 1.9 nM | 19.2 nM | potency and softness compared with the corresponding compounds 11 and 15 [3]: more potent but softer; stability in the presence of human plasma [4]: particularly stable
CCOC(=O)[C@@]1(OC(=O)C(Cl)Cl)[C@@H](C)C[C@H]2[C@@H]3C[C@H](F)C4=CC(=O)C=C[C@]4(C)[C@@]3(F)[C@@H](O)C[C@@]21C [Compound 15, Ethyl 6α,9α-difluoro-17α-dichloroacetoxy-16β-methyl-11β-hydroxy-3-oxoandrosta-1,4-diene-17β-carboxylate] | 2 nM | 14 nM | < 0.01 nM | – | – | –
